The test system of assay [1] is ER. The conditions noted are these: ligand plus estrogen receptor plus Brg1 complex. The procedure:
To reconstitute specific chromatin remodeling in vitro, one would co-incubate wild type or mutant ERE-containing nucleosomes with E2/ER or ICI/ER as in D2.2a. Equimolar Brg1, obtainable from Jena Biosciences (Dortmund, Germany), would be added and measurement would be made of the FRET loss that is specific to wt ERE-containing nucleosomes in a buffer of 12 mM HEPES, pH 7.9, 60 mM KCl, 15% glycerol, catalase, 10 mM DTT, 2 mM MgCl2, 4 mM ATP, 0.4% (w/v) glucose, 0.1 mg/ml glucose oxidase, and 0.02 mg/ml catalase. In the absence of measurable FRET loss, Flag-tagged BAF57, BAF155 and BAF170 could 1 be added in a 2:1 ratio, relative to Brg1, in keeping with observations in publication 69. Ligand-dependent measurement of FRET loss would be monitored.
The remodeling reaction is expected to be ATP-dependent. This would be tested by ATP deletion in relation to incubation conditions that had decreased FRET. Also, initial validation of reagents would be effected done through measurement of micrococcal nuclease sensitivity of the mononucleosome bound DNA.

The subject of assay [2] is ER. The conditions noted are these: recombinant protein system, equimolar estrogen, ICI, tamoxifen, cholesterol. An excerpt:
Use of a recombinant protein system would be preferred to use of cell extracts in this context. A recombinant protein system would facilitate modulation of component stoichiometries.

Sequence of ER (P03372 whole entry): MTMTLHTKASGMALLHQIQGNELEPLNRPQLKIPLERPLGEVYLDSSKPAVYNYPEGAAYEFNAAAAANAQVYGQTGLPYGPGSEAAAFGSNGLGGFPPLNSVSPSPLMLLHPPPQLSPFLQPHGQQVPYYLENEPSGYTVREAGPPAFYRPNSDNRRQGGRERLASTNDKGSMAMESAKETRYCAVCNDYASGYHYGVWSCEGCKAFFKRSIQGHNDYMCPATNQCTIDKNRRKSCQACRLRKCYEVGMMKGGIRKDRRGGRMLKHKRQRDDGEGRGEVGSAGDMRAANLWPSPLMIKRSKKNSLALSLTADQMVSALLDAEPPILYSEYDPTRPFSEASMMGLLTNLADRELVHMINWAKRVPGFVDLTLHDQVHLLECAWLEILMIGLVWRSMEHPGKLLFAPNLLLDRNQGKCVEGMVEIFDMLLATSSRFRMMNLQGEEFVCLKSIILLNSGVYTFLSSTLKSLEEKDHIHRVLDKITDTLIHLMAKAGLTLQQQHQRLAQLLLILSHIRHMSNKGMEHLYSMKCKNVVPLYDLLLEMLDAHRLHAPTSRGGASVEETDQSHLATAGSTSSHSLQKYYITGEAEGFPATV

Take `C[C@]12CC[C@@H]3c4ccc(O)cc4C[C@@H](CCCCCCCCC[S+]([O-])CCCC(F)(F)C(F)(F)F)[C@H]3[C@@H]1CC[C@@H]2O` (stereo partly shown) [ICI, ICI182780]: in the assay with ER [1], the “loss of FRET signal” value is “negative controls”.
For the molecule `CC(C)CCC[C@@H](C)[C@H]1CC[C@H]2[C@@H]3CC=C4C[C@@H](O)CC[C@]4(C)[C@H]3CC[C@]12C` [cholesterol], the “loss of FRET signal” value in the assay on ER [1] is “negative controls”. In addition, the “distribution of ligand into sorted pools” value in the assay on ER [2] is reported as “would not be carried forward through the sort”.
Consider Vitamin D3, for which the “loss of FRET signal” value with ER [1] is on record as “negative controls”.

The values above are taken from patent US20090062130A1, “NUCLEOSOME-BASED BIOSENSOR” (UNIVERSITY OF PITTSBURGH - OF THE COMMONWEALTH SYSTEM OF …, priority 2006, published 2009).
